14 molecules from PubChem BioAssay AID212 (DTP/NCI, 2004) can be followed below.

Values joined by “and” are separate entries in the source; they are usually repeats but may differ in a detail not shown here. Equal entries are not always repeated. Results filed as inconclusive are left out.

The test deals with BDF1 mice, colon carcinoma 38 sc, T/C %. The experiment in a line: NCI In Vivo Anticancer Drug Screen. Data for tumor model Colon Carcinoma 38 (subcutaneous) in B6D2F1 (BDF1) mice. The method, boiled down:
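Transplantable tumor in mice; compound-treated vs vehicle-dosed controls. Measured survival or tumor size; value = T ÷ C.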

Where [1] appears, read: endpoint: median tumor weight (est.), dose: 100.0 mg/kg/injection, schedule: Q07DX002 (ip), vehicle: saline with Tween-80, higher = larger tumour.
Setting [2] is: endpoint: median tumor weight (est.), dose: 200.0 mg/kg/injection, schedule: Q07DX002 (ip), vehicle: saline with Tween-80, higher = larger tumour.
Where [3] appears, read: endpoint: median tumor weight (est.), dose: 6.25 mg/kg/injection, schedule: Q07DX002 (ip), vehicle: saline with Tween-80, higher = larger tumour.
Where [4] appears, read: endpoint: median tumor weight (est.), dose: 12.5 mg/kg/injection, schedule: Q07DX002 (ip), vehicle: saline with Tween-80, higher = larger tumour.
Where [5] appears, read: endpoint: median tumor weight (est.), dose: 25.0 mg/kg/injection, schedule: Q07DX002 (ip), vehicle: saline with Tween-80, higher = larger tumour.
[6] abbreviates: endpoint: median tumor weight (est.), dose: 50.0 mg/kg/injection, schedule: Q07DX002 (ip), vehicle: saline with Tween-80, higher = larger tumour.
Setting [7] is: endpoint: median tumor weight (est.), dose: 25.0 mg/kg/injection, schedule: Q07DX002 (ip), vehicle: Klucel (hydroxypropylcellulose) (HPC), higher = larger tumour.
Where [8] appears, read: endpoint: median tumor weight (est.), dose: 50.0 mg/kg/injection, schedule: Q07DX002 (ip), vehicle: Klucel (hydroxypropylcellulose) (HPC), higher = larger tumour.
Where [9] appears, read: endpoint: median tumor weight (est.), dose: 100.0 mg/kg/injection, schedule: Q07DX002 (ip), vehicle: Klucel (hydroxypropylcellulose) (HPC), higher = larger tumour.
Where [10] appears, read: endpoint: median tumor weight (est.), dose: 200.0 mg/kg/injection, schedule: Q07DX002 (ip), vehicle: Klucel (hydroxypropylcellulose) (HPC), higher = larger tumour.
[11] abbreviates: endpoint: median tumor weight (est.), dose: 12.5 mg/kg/injection, schedule: Q07DX002 (ip), vehicle: Klucel (hydroxypropylcellulose) (HPC), higher = larger tumour.
The mark [12] stands for this setting: endpoint: median tumor weight (est.), dose: 25.0 mg/kg/injection, schedule: Q07DX003 (ip), vehicle: Klucel (hydroxypropylcellulose) (HPC), higher = larger tumour.

In the case of `Nc1nc(N)c2cc(S(=O)(=O)c3ccccc3)ccc2n1`, the T/C runs as follows: (endpoint: median survival time, dose: 57.0 mg/kg/injection, schedule: Q06HX014 (ip), vehicle: saline with Tween-80, higher = longer survival) 166 % of control; (endpoint: median survival time, dose: 86.0 mg/kg/injection, schedule: Q06HX014 (ip), vehicle: saline with Tween-80, higher = longer survival) 205 % of control; (endpoint: median survival time, dose: 520.0 mg/kg/injection, schedule: Q07DX002 (ip), vehicle: saline with Tween-80, higher = longer survival) 118 % of control; under setting [1], 106 % of control; under setting [2], 190 % of control; (endpoint: median tumor weight (est.), dose: 400.0 mg/kg/injection, schedule: Q07DX002 (ip), vehicle: saline with Tween-80, higher = larger tumour) 169 % of control. Moreover, the T/C (endpoint: median tumor weight (est.), dose: 800.0 mg/kg/injection, schedule: Q07DX002 (ip), vehicle: saline with Tween-80, higher = larger tumour) is 21 % of control.
For `N=c1nc2n(cc1F)[C@@H]1O[C@H](CO)[C@@H](O)[C@@H]1O2`, the T/C by setting is: (endpoint: median tumor weight (est.), dose: 100.0 mg/kg/injection, schedule: Q07DX002 (ip), vehicle: saline, higher = larger tumour) 118 % of control; (endpoint: median tumor weight (est.), dose: 100.0 mg/kg/injection, schedule: Q07DX002 (ip), vehicle: suspension in saline, higher = larger tumour) 117 % of control; (endpoint: median tumor weight (est.), dose: 200.0 mg/kg/injection, schedule: Q07DX002 (ip), vehicle: saline, higher = larger tumour) 193 % of control; (endpoint: median tumor weight (est.), dose: 200.0 mg/kg/injection, schedule: Q07DX002 (ip), vehicle: suspension in saline, higher = larger tumour) 93 % of control; (endpoint: median tumor weight (est.), dose: 400.0 mg/kg/injection, schedule: Q07DX002 (ip), vehicle: suspension in saline, higher = larger tumour) 99 % of control; (endpoint: median tumor weight (est.), dose: 800.0 mg/kg/injection, schedule: Q07DX002 (ip), vehicle: saline, higher = larger tumour) 102 % of control. Besides, the T/C was 53 % of control (endpoint: median tumor weight (est.), dose: 1600.0 mg/kg/injection, schedule: Q07DX002 (ip), vehicle: saline, higher = larger tumour) and 40 % of control (endpoint: median tumor weight (est.), dose: 1600.0 mg/kg/injection, schedule: Q07DX002 (ip), vehicle: suspension in saline, higher = larger tumour).
`CC[C@@]1(O)C(=O)OCc2c1cc1n(c2=O)Cc2cc3cc(O)ccc3nc2-1`: the T/C runs as follows: (endpoint: median tumor weight (est.), dose: 0.75 mg/kg/injection, schedule: Q07DX002 (ip), vehicle: saline, higher = larger tumour) 92 % of control; (endpoint: median tumor weight (est.), dose: 1.5 mg/kg/injection, schedule: Q07DX002 (ip), vehicle: saline, higher = larger tumour) 92 % of control; (endpoint: median tumor weight (est.), dose: 3.0 mg/kg/injection, schedule: Q07DX002 (ip), vehicle: saline, higher = larger tumour) 91 % of control; (endpoint: median tumor weight (est.), dose: 6.0 mg/kg/injection, schedule: Q07DX002 (ip), vehicle: saline, higher = larger tumour) 67 % of control; (endpoint: median tumor weight (est.), dose: 12.0 mg/kg/injection, schedule: Q07DX002 (ip), vehicle: saline, higher = larger tumour) 81 % of control.
`CCCCCCCCCCCCCC#CC(=O)O`: the T/C under setting [3] was 76 % of control, the T/C under setting [4] is 92 % of control, the T/C under setting [5] is 75 % of control and the T/C under setting [6] was 84 % of control.
Regarding `C[C@]12CCC(=O)C(O)=C1CC[C@@H]1[C@@H]2CC[C@]2(C)C(=O)CC[C@@H]12`, the T/C reads like this: under setting [7], 82 % of control; under setting [8], 110 % of control and 101 % of control; under setting [9], 176 % of control and 186 % of control; under setting [10], 59 % of control and 84 % of control.
On to `CC[C@H]1CN2CCc3cc(OC)c(OC)cc3[C@@H]2C[C@@H]1C[C@H]1NCCc2cc(OC)c(OC)cc21`, for which the T/C is 57 % of control (endpoint: median tumor weight (est.), dose: 1.75 mg/kg/injection, schedule: Q07DX002 (ip), vehicle: saline, higher = larger tumour); 74 % of control (endpoint: median tumor weight (est.), dose: 3.5 mg/kg/injection, schedule: Q07DX002 (ip), vehicle: saline, higher = larger tumour); 84 % of control (endpoint: median tumor weight (est.), dose: 7.0 mg/kg/injection, schedule: Q07DX002 (ip), vehicle: saline, higher = larger tumour); 89 % of control (endpoint: median tumor weight (est.), dose: 14.0 mg/kg/injection, schedule: Q07DX002 (ip), vehicle: saline, higher = larger tumour); 74 % of control (endpoint: median tumor weight (est.), dose: 28.0 mg/kg/injection, schedule: Q07DX002 (ip), vehicle: saline, higher = larger tumour).
Consider `C1=CCOCOC1`, for which the T/C was 77 % of control under setting [4]; 94 % of control and 104 % of control under setting [5]; 72 % of control under setting [1]; 58 % of control under setting [2].
With `Nc1cc2c3c(cccc3c1)C(=O)N(CCN1CCCC1)C2=O`, the T/C reads like this: (endpoint: median tumor weight (est.), dose: 15.0 mg/kg/injection, schedule: Q07DX002 (ip), vehicle: saline with Tween-80, higher = larger tumour) 75 % of control; under setting [5], 117 % of control; (endpoint: median tumor weight (est.), dose: 30.0 mg/kg/injection, schedule: Q07DX002 (ip), vehicle: saline with Tween-80, higher = larger tumour) 83 % of control; under setting [6], 152 % of control; (endpoint: median tumor weight (est.), dose: 60.0 mg/kg/injection, schedule: Q07DX002 (ip), vehicle: saline with Tween-80, higher = larger tumour) 73 % of control; under setting [1], 90 % of control. Also, the T/C was 62 % of control (endpoint: median tumor weight (est.), dose: 120.0 mg/kg/injection, schedule: Q07DX002 (ip), vehicle: saline with Tween-80, higher = larger tumour) and 28 % of control under setting [2].
Turning to `O=[N+]([O-])/C=C\c1ccc2c(c1)OCO2`, the T/C is 364 % of control under setting [11]; 364 % of control under setting [7]; 64 % of control and 71 % of control under setting [12]; 185 % of control under setting [8]; 93 % of control under setting [9]; 88 % of control and 92 % of control (endpoint: median tumor weight (est.), dose: 100.0 mg/kg/injection, schedule: Q07DX003 (ip), vehicle: Klucel (hydroxypropylcellulose) (HPC), higher = larger tumour). Also, the T/C under setting [10] is 77 % of control; the T/C (endpoint: median tumor weight (est.), dose: 200.0 mg/kg/injection, schedule: Q07DX003 (ip), vehicle: Klucel (hydroxypropylcellulose) (HPC), higher = larger tumour) is 56 % of control; the T/C (endpoint: median tumor weight (est.), dose: 400.0 mg/kg/injection, schedule: Q07DX002 (ip), vehicle: Klucel (hydroxypropylcellulose) (HPC), higher = larger tumour) is 102 % of control.
With `CC(C)[C@]12O[C@H]1[C@@H]1O[C@]13[C@]1(O[C@H]1C[C@H]1C4=C(C(=O)OC4)[C@@H](O)C[C@@]13C)[C@@H]2O`, the T/C runs as follows: (endpoint: median tumor weight (est.), dose: 25.0 micrograms/kg/injection, schedule: Q07DX002 (ip), vehicle: saline + alcohol, higher = larger tumour) 113 % of control; (endpoint: median tumor weight (est.), dose: 100.0 micrograms/kg/injection, schedule: Q07DX002 (ip), vehicle: saline + alcohol, higher = larger tumour) 113 % of control; (endpoint: median tumor weight (est.), dose: 200.0 micrograms/kg/injection, schedule: Q07DX002 (ip), vehicle: saline + alcohol, higher = larger tumour) 109 % of control; (endpoint: median tumor weight (est.), dose: 400.0 micrograms/kg/injection, schedule: Q07DX002 (ip), vehicle: saline + alcohol, higher = larger tumour) 63 % of control.
As for `CCN(CC)CC[n+]1ccc2c(C)c3[nH]c4ccc(O)cc4c3c(C)c2c1`, the T/C was 38 % of control (endpoint: median tumor weight (est.), dose: 3.12 mg/kg/injection, schedule: Q07DX002 (ip), vehicle: saline, higher = larger tumour); 82 % of control (endpoint: median tumor weight (est.), dose: 3.12 mg/kg/injection, schedule: Q07DX002 (ip), vehicle: suspension in saline, higher = larger tumour); 103 % of control (endpoint: median tumor weight (est.), dose: 6.25 mg/kg/injection, schedule: Q07DX002 (ip), vehicle: suspension in saline, higher = larger tumour); 98 % of control (endpoint: median tumor weight (est.), dose: 12.5 mg/kg/injection, schedule: Q07DX002 (ip), vehicle: suspension in saline, higher = larger tumour); 15 % of control and 29 % of control (endpoint: median tumor weight (est.), dose: 25.0 mg/kg/injection, schedule: Q07DX002 (ip), vehicle: saline, higher = larger tumour); 57 % of control (endpoint: median tumor weight (est.), dose: 25.0 mg/kg/injection, schedule: Q07DX002 (ip), vehicle: suspension in saline, higher = larger tumour). In addition, the T/C is, setting by setting: (endpoint: median tumor weight (est.), dose: 50.0 mg/kg/injection, schedule: Q07DX002 (ip), vehicle: saline, higher = larger tumour) 5 % of control; (endpoint: median tumor weight (est.), dose: 50.0 mg/kg/injection, schedule: Q07DX002 (ip), vehicle: suspension in saline, higher = larger tumour) 22 % of control.
Take `BrC[P+](CBr)(CBr)CBr`: the T/C (endpoint: median tumor weight (est.), dose: 3.12 mg/kg/injection, schedule: Q07DX002 (ip), vehicle: saline with Tween-80, higher = larger tumour) was 48 % of control; the T/C under setting [3] was 73 % of control; the T/C under setting [6] was 82 % of control; the T/C under setting [1] was 75 % of control and 77 % of control.
Regarding `C/C(=C\c1ccccc1)[N+](=O)[O-]`, the T/C was 81 % of control (endpoint: median tumor weight (est.), dose: 12.5 mg/kg/injection, schedule: Q07DX003 (ip), vehicle: Klucel (hydroxypropylcellulose) (HPC), higher = larger tumour); 79 % of control and 91 % of control under setting [12]; 82 % of control and 90 % of control (endpoint: median tumor weight (est.), dose: 50.0 mg/kg/injection, schedule: Q07DX003 (ip), vehicle: Klucel (hydroxypropylcellulose) (HPC), higher = larger tumour).
Take `Cc1cc(C)c(-c2cc(O)c(C)cc2O)c(C)c1`: the T/C is 83 % of control under setting [11] and 82 % of control under setting [8].
